Measurements reported in US6723702B2, “Use of relaxin treat diseases related to vasoconstriction” (RAS Medical, Inc., priority 2000, dated 2004).

Assays:
conscious male rats = assay: 5-day rhRLX infusion in conscious male rats: MAP, renal function, hematocrit, plasma osmolality, sodium; assay type: in vivo, rat
Procedure: After being placed in the experimental cage, a 100 μl blood sample was drawn from the arterial catheter into a heparinized tube for measurement of baseline plasma osmolality, sodium concentration and hematocrit prior to the administration of any fluids. […] Next, a bolus of inulin (IN, 0.2 ml of a 20% stock solution/100 g BW) and para-aminohippurate (PAH, 0.1 ml of a 2% working solution/100 g BW) was given over 1 minute into the venous catheter followed by a constant infusion of the two reagents at a rate of 0.5 mg/minute per 100 g BW and 0.1 mg/minute per 100 g BW, respectively. The flow rate was 19 μl/minute delivered by a Model 200 Syringe Pump (kd Scientific, Boston Mass.). Finally, the obturator in the bladder catheter was removed, and the latter was extended with a short piece of polyethylene tubing to facilitate the collection of urine.
The technique of urine collection has proven to be reliable. Conrad and Colpoys (1986) J. Clin. Invest. 77:236-245; Danielson and Conrad (1995) J. Clin. Invest. 96:482-490; and Danielson and Conrad (1996) Circ. Res. 79:1161-1166. Indeed, after reaching steady-state in this study, the excretion rates of IN and PAH were 91±3 and 100±4% of their respective infusions. After measuring baseline mean arterial pressure and renal function, an osmotic minipump (model 2ML1, Alza Co., Palo Alto Calif.) containing either recombinant human relaxin (rhRLX; n=12 rats) or vehicle (n=7) was implanted subcutaneously on the back using light ether anesthesia. […] Five days later, mean arterial pressure (MAP), glomerular filtration rate (GFR), effective renal plasma flow (ERPF), and other parameters were again assessed as describe above. At this time, the excretion rates of IN and PAH were 91±3 and 98±2% of their respective infusion rates. At the end of the experiment, 1.0 ml of blood was collected for determination of serum rhRLX.
Inulin concentration in plasma and urine was measured by the anthrone method, and PAH was determined by the method of Bratton and Marshall as modified by Smith. This method is described in Conrad (1984) Kidney Int. 26:24-29, and references cited therein. Plasma sodium was measured by a Kodak Ektachem Instrument (Rochester, N.Y.). Plasma osmolality was determined by freezing point depression (Advanced Osmometer, Model 3MO, Advanced Instruments, Needham Heights Mass.). All urine and plasma samples from MWRI were coded and sent to UNM for analysis of IN, PAH, sodium and osmolality (by L.A.D.). The rhRLX in serum was measured using a quantitative sandwich immunoassay, again in a blinded fashion. Danielson et al. (1999) J. Clin. Invest. 103:525-533.

human cardiac cells = assay: Cellular proliferation by 3H-thymidine incorporation in cardiac cells; assay type: cell-based
Procedure: To determine if the effects of relaxin observed in the rat were also seen in human cells, total RNA from cardiac cells was extracted following treatment of cells with 1, 10, and 100 ng/ml relaxin for 24 hours. Human cardiac cells were cultured for 24 hours either without or with relaxin (1-100 ng/ml). Untreated cells were incubated for the same 24 hour period under hypoxic (2% O2) conditions. Using 150 ng of total RNA for human VEGF and bFGF transcripts and 10 ng of total RNA for GAPDH transcripts, primer/probe sets were used to generate RT-PCR products for human VEGF 165aa and 121aa isoforns and human bFGF. Data were analyzed using Sequence Detector v1.6.3 software (Applied Biosystems/PE). VEGF and bFGF expression levels are graphed relative to GAPDH transcript levels. Data are shown as means±SEM, where n=3 per treatment group; *p<0.05; Student-Newman-Keuls test. […] Absolute baseline levels of bFGF mRNA transcripts expressed by these cells were approximately 2-fold greater than those of either the VEGF121 or the VEGF165 isoforms. Total RNA from cells incubated under hypoxic conditions was analyzed as a positive control for the stimulation of VEGF isoforms. […] Relaxin had no effect on cellular proliferation, as assessed by ^3H-thymidine incorporation, on cellular morphology, or on desmin or vimentin staining patterns.

[1] = system: female Swiss Webster mice; assay: Matrigel assay of angiogenesis; assay type: in vivo, mouse; conditions: 100 ng/ml in Matrigel, s.c., three separate studies, vs vehicle
Procedure: Animals were purchased from Harlan Sprague Dawley (Indianapolis, Ind.) and were housed according to NIH guidelines. Protocols were in compliance with institutional guidelines. Matrigel (Collaborative Biomedical, Bedford, Mass.) was mixed with relaxin to a final concentration of 100 ng/ml, or mixed with the identical volume of citrate buffer, on ice. […] was injected subcutaneously into the flank of female Swiss Webster mice. At 11 days, the Matrigel plugs were harvested, fixed, and stained with H & E (hematoxylin and eosin) for assessment of new blood vessel ingrowth. Vessel growth was scored on a 0-5 scale: 0=no infiltration; 1=minor infiltration; 2 =3-5 cell layers infiltrating only margins of the plug; 3=5-10 cell layers infiltrating margins with some areas of deeper infiltration; <25% of plug infiltrated; 4=Many areas of deep cellular infiltration; 25-50% of plug infiltrated; 5=50-100% of plug infiltrated. Endothelial cells preferentially migrate into the basement membrane matrix.
The ability of relaxin to induce new blood vessel growth in vivo was tested in the murine Matrigel system for assessing angiogenesis. Passaniti et al. (1992) Lab. Invest. 67:519-528. […] At 10 days, Matrigel plugs were harvested, processed for histology, and H & E sections scored for vessel ingrowth in blinded fashion. […]

For “rhRLX: recombinant human relaxin, identical in amino acid sequence to the product of the human H2 gene; A chain of 24, B chain of 29 amino acids”, the “effect on ERPF” value (conscious male rats; 4 μg/hour for 5 days (FIG. 3)) was “significantly increased”, the “effect on ERVR” value (conscious male rats; 4 μg/hour for 5 days (FIG. 3)) was “reducing” and the “effect on GFR” value (conscious male rats; 4 μg/hour for 5 days (FIG. 3)) was “significantly increased”. For the same substance, the “effect on MAP” value (conscious male rats; 4 μg/hour for 5 days (FIG. 3)) was “did not significantly affect”, the “HCT (hematocrit), change from the baseline” value (conscious male rats; rhRLX 4 μg/hour for 5 days) was −5.0 ± 0.6 % and the “PNa+ (plasma sodium concentration), change from the baseline” value (conscious male rats; rhRLX 4 μg/hour for 5 days) was −5.3 ± 0.4 mEq/L. For the same substance, the “Posm (plasma osmolality), change from the baseline” value (conscious male rats; rhRLX 4 μg/hour for 5 days) was −10.9 ± 1.4 mOsm/kg H2O, the “cellular proliferation, 3H-thymidine incorporation” value (human cardiac cells) was “no effect” and the “vessel ingrowth into Matrigel plugs” value [1] was “significantly more vessel ingrowth”.
